Test results from ChEMBL document CHEMBL1201862, “PubChem BioAssay data set” (2004).
Activity calls are given as the source filed them.

Tests used:
[1] = Luminescent dose response cell-based high throughput screening assay for inhibitors of the Janus kinase 2 mutant JAK2V617F. [Related pubchem assays: 1446 (Primary screen.), 1521 (Confirmation assay.), 1486 (Counter screen.)]; assay type: functional
Vero [2] = assay: cells; assay type: functional, cell-based; conditions: Chlorocebus sabaeus
Vero [3] = assay: cells; assay type: functional; conditions: Chlorocebus sabaeus
[4] = target: Solute carrier family 12 member 2/member 5 (Homo sapiens, UniProt P55011+Q9H2X9); assay: KCC2 and NKCC1 inhibition by rubidium flux, cell-based, NKCC1 counter-screen (AID 1734); assay type: functional, HEK293
Cytochrome P450 2C19 = Cytochrome P450 2C19 (Homo sapiens, UniProt P33261); assay: qHTS Assay for Inhibitors and Substrates of Cytochrome P450 2C19. [Related pubchem assays: 410 ]; assay type: ADME; conditions: read-out: Potency
Cytochrome P450 3A4 [5] = target: T1, Cytochrome P450 3A4 (Homo sapiens, UniProt P08684); conditions: Potency
[6] = inhibitors of Vif binding to APOBEC3G peptide, primary screen, biochemical, TR-FRET, GST-Vif 1-94, biotin-A3G peptide, dose response retest (AID 1117319); assay type: functional;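 further: TR-FRET signal of purified GST-Vif binding a biotinylated A3G peptide; inhibitors lower the FRET signal by blocking Vif and A3G binding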
Leucine aminopeptidase = target: T2, Leucine aminopeptidase (Plasmodium falciparum 3D7, UniProt Q8IL11); assay: P. falciparum M17LAP inhibitors, primary screen, biochemical, fluorogenic H-Leu-NHMec substrate, 1536-well (AID 1619); assay type: functional
T2 sequence (Q8IL11 whole entry): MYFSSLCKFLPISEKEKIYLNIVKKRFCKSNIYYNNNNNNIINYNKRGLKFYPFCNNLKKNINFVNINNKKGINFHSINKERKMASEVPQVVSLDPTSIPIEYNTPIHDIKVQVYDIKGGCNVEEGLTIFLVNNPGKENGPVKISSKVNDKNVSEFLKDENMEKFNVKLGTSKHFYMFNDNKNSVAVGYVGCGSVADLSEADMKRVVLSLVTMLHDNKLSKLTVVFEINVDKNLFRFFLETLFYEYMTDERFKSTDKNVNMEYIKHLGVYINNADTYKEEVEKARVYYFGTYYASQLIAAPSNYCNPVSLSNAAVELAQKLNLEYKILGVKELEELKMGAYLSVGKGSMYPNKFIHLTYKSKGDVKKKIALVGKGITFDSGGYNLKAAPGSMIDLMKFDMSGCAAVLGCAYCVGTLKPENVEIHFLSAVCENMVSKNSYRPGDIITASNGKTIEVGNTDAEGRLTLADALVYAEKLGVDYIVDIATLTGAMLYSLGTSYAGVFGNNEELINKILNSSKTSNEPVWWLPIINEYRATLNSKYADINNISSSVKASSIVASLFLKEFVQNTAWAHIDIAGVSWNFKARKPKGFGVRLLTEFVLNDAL

[7] = Artemis endonuclease inhibitor potency, dose response, biochemical, fluorescence intensity (AID 720701); assay type: functional;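 further: Artemis endonuclease enzyme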
Cytochrome P450 1A2 = target: T3, Cytochrome P450 1A2 (Homo sapiens, UniProt P05177);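 further: PubChem cytochrome P450 panel assay, CYP1A2 panel member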
T3 sequence (P05177 whole entry): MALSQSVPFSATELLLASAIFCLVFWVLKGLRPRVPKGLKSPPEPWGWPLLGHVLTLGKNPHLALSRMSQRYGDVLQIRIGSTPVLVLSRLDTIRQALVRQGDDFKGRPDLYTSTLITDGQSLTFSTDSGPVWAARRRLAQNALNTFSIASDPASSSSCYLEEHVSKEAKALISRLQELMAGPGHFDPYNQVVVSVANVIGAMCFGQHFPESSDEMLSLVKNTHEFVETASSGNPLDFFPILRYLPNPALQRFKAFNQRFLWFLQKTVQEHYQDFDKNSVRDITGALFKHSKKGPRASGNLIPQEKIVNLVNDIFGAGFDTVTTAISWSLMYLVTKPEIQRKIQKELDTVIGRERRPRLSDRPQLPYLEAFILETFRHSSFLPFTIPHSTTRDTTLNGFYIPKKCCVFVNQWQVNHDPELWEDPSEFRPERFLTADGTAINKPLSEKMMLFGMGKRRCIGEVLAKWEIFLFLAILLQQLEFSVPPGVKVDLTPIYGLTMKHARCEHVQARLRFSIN

Cytochrome P450 3A4 [8] = target: T1, Cytochrome P450 3A4
Vero [9] = assay: West Nile virus antiviral activity, cell-based, CPE readout (AID 1621); assay type: functional; conditions: Chlorocebus sabaeus
cells [10] = conditions: A549
cells [11] = assay: cells
cells [12] = conditions: HEK293

T1 sequence (P08684 whole entry): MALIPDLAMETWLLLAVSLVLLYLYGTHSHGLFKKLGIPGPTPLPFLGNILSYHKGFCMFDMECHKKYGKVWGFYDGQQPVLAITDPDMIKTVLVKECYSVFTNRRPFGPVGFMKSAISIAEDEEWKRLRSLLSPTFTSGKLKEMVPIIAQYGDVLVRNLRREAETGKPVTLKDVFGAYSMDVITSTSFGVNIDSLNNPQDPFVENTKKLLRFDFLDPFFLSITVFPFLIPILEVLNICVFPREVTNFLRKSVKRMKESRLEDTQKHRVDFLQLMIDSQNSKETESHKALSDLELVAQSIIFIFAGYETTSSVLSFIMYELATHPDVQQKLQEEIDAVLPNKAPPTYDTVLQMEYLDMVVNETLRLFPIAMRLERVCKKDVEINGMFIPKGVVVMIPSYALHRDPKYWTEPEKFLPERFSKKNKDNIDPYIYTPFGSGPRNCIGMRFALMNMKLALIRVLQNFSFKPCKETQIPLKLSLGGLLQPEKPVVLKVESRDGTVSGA
Chain of Cytochrome P450 2C19 (P33261 whole entry): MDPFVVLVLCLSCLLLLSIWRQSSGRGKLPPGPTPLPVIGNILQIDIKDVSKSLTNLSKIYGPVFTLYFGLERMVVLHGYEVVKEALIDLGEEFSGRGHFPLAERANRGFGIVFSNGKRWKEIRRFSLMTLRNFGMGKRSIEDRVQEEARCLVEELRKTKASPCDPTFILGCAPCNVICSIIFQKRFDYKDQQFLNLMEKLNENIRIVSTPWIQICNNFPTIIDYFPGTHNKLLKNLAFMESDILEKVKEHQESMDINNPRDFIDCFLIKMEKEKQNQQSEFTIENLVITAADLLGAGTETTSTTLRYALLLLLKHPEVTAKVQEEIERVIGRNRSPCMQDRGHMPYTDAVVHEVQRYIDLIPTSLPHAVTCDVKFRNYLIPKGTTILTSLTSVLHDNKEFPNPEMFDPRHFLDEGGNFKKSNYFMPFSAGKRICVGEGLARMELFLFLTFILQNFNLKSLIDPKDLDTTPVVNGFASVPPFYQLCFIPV

Structure (SMILES): O=C(NC1C=CS(=O)(=O)C1)c1sc2ccccc2c1Cl (configuration not stated)
- IC50 [1]: 2.82 µM (active)
- IC50 (Vero [2]): > 25 µM (active)
- CC50 (Vero [3]): 23.9 µM (active)

Structure (SMILES): CC1Cc2ccccc2N1C(=O)c1ccc(N2CCCC2)c([N+](=O)[O-])c1 (configuration not stated)
- IC50 [4]: 51 µM (active)

Structure (SMILES): CCOC(=O)OCC1OC(c2ccccc2)C=CC1Oc1cccc(N(C)C)c1 (configuration not stated)
- AC50 (Cytochrome P450 2C19): 3.16 µM (inconclusive)
- AC50 (Cytochrome P450 3A4 [5]): 3.16 µM (inconclusive)

Structure (SMILES): Cc1cccc(N2CCN(CC(=O)NCC3CCCCC3)CC2)c1C
- IC50 [6]: > 100 µM (active)

Structure (SMILES): Cc1sc(NC(=O)C2C3CCC(O3)C2C(=O)O)c(C(=O)OC(C)C)c1-c1ccc(Cl)cc1 (configuration not stated)
- IC50 (Leucine aminopeptidase): 10.1 µM (active)
- IC50 [7]: > 20 µM (inactive)
- AC50 (Cytochrome P450 1A2): 22.4 µM (inconclusive)
- AC50 (Cytochrome P450 3A4 [8]): 15.8 µM (inconclusive)

Structure (SMILES): Cc1cccn2c(=O)c3cc(C(=O)NCCN4CCOCC4)c(=N)n(Cc4ccc(F)cc4)c3nc12
- IC50 (Vero [9]): 25.6 µM (active)
- IC50 (Vero [2]): > 25 µM (active)
- CC50 (Vero [3]): > 25 µM (active)
- AC50 (cells [10]): 18.3 µM (active)
- AC50 (cells [11]): 1.96 µM (active)
- AC50 (cells [12]): 48.4 µM (active)
